# Target: human-KAT6A (MYST domain 507-778 aa) (Homo sapiens (Human), UniProt Q92794)
# Assay: KAT6A biochemical assay (TR-FRET)
# Conditions: for IC50: TR-FRET, histone H4 peptide 200 nM, acetyl-CoA 600 nM, read-out: KAT6A IC50
# Method in brief: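 KAT6A MYST domain preincubated with compound 30 min at 25° C, then reacted 60 min at 25° C with 200 nM biotin-H4 peptide and 600 nM acetyl-CoA (final). Europium anti-acetyl-lysine/streptavidin-APC TR-FRET read (Ex 340, Em 615/665 nm); % inhibition from 665/615 ratio, IC50 by sigmoidal fit.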
# Chain of human-KAT6A (MYST domain 507-778 aa) (Q92794 507-778): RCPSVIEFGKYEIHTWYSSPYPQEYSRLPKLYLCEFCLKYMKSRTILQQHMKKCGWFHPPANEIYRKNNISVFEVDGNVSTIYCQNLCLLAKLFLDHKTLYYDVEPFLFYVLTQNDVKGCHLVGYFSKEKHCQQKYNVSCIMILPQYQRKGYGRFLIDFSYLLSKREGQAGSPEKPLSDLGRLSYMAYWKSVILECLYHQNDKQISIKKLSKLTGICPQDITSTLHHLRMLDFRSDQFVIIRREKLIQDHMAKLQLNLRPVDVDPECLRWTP
SMILES,IC50 [µM],"inhibition at 1 µM (@ 1 μM, reported where IC50 could not be determined, read-out: Percent inhibition at specific concentration (KAT6A)) [%]"
"COc1cccc(OC)c1S(=O)(=O)NC(=O)c1ccc(Cn2cccn2)c(OC(F)(F)F)n1 [Compound 228, 5-((1H-pyrazol-1-yl)methyl)-N-((2,6-dimethoxyphenyl)sulfonyl)-6-(trifluoromethoxy)picolinamide]",0.021,
"COc1cccc(OC)c1S(=O)(=O)NC(=O)c1ccc(Cn2cccn2)c(C2CC2)n1 [Compound 229, 5-((1H-pyrazol-1-yl)methyl)-6-cyclopropyl-N-((2,6-dimethoxyphenyl)sulfonyl)picolinamide]",0.013,
"COc1ccc(C(C)(C)O)cc1S(=O)(=O)NC(=O)c1ccc(Cn2cccn2)c(OC)n1 [Compound 230, 5-((1H-pyrazol-1-yl)methyl)-N-((5-(2-hydroxypropan-2-yl)-2-methoxyphenyl)sulfonyl)-6-methoxypicolinamide]",0.011,
"COc1cccc(OC)c1S(=O)(=O)NC(=O)c1ccc(Cn2cccn2)c(C(F)F)n1 [Compound 231, 5-((1H-pyrazol-1-yl)methyl)-6-(difluoromethyl)-N-((2,6-dimethoxyphenyl)sulfonyl)picolinamide]",0.014,
"COc1ccccc1S(=N)(=O)NC(=O)c1ccc(Cn2cccn2)c(OC)n1 (centres unmarked) [Compound 232, 5-((1H-pyrazol-1-yl)methyl)-6-methoxy-N-(2-methoxyphenylsulfonimidoyl)picolinamide]",0.095,
"COc1nc(C(=O)NS(=O)(=O)c2cccc3c2CCC3)ccc1Cn1cccn1 [Compound 233, 5-((1H-pyrazol-1-yl)methyl)-N-((2,3-dihydro-1H-inden-4-yl)sulfonyl)-6-methoxypicolinamide]",0.094,
"COc1nc(C(=O)NS(=O)(=O)c2ccc3c(c2)CCC3)ccc1Cn1cccn1 [Compound 234, 5-((1H-pyrazol-1-yl)methyl)-N-((2,3-dihydro-1H-inden-5-yl)sulfonyl)-6-methoxypicolinamide]",0.042,
"COc1cccc(OC(F)(F)F)c1S(=O)(=O)NC(=O)c1ccc(Cn2cccn2)c(OC)n1 [Compound 235, 5-((1H-pyrazol-1-yl)methyl)-6-methoxy-N-((2-methoxy-6-(trifluoromethoxy)phenyl)sulfonyl)picolinamide]",0.007,
"COc1cccc(OC)c1S(=O)(=O)NC(=O)c1ccc(Cn2cccn2)c(C(F)(F)F)n1 [Compound 236, 5-((1H-pyrazol-1-yl)methyl)-N-((2,6-dimethoxyphenyl)sulfonyl)-6-(trifluoromethyl)picolinamide]",0.004,
"COc1nc(C(=O)NS(=O)(=O)c2cccc(C(C)(C)O)c2)ccc1Cn1cccn1 [Compound 237, 5-((1H-pyrazol-1-yl)methyl)-N-((3-(2-hydroxypropan-2-yl)phenyl)sulfonyl)-6-methoxypicolinamide]",0.044,
"COc1cc(OC)c(S(=O)(=O)NC(=O)c2ccc(Cn3cccn3)c(OC)n2)cc1Cl [Compound 238, 5-((1H-pyrazol-1-yl)methyl)-N-((5-chloro-2,4-dimethoxyphenyl)sulfonyl)-6-methoxypicolinamide]",0.037,
"CCC(C)(O)c1ccc(OC)c(S(=O)(=O)NC(=O)c2ccc(Cn3cccn3)c(OC)n2)c1 (centres unmarked) [Compound 239, 5-((1H-pyrazol-1-yl)methyl)-N-((5-(2-hydroxybutan-2-yl)-2-methoxyphenyl)sulfonyl)-6-methoxypicolinamide]",0.012,
"COc1ccc(C(C)(O)C2CC2)cc1S(=O)(=O)NC(=O)c1ccc(Cn2cccn2)c(OC)n1 (centres unmarked) [Compound 240, 5-((1H-pyrazol-1-yl)methyl)-N-((5-(1-cyclopropyl-1-hydroxyethyl)-2-methoxyphenyl)sulfonyl)-6-methoxypicolinamide]",0.011,
"COc1ccc(Cl)c(OC)c1S(=O)(=O)NC(=O)c1ccc(Cn2cccn2)c(OC)n1 [Compound 241, 5-((1H-pyrazol-1-yl)methyl)-N-((3-chloro-2,6-dimethoxyphenyl)sulfonyl)-6-methoxypicolinamide]",0.01,
"COc1cc(OC)c(S(=O)(=O)NC(=O)c2ccc(Cn3cccn3)c(OC)n2)cc1Br [Compound 242, 5-((1H-pyrazol-1-yl)methyl)-N-((5-bromo-2,4-dimethoxyphenyl)sulfonyl)-6-methoxypicolinamide]",0.01,
"COc1cccc(OC)c1S(=N)(=O)NC(=O)c1ccc(Cn2cccn2)c(OC)n1 (centres unmarked) [Compound 243, 5-((1H-pyrazol-1-yl)methyl)-N-(2,6-dimethoxyphenylsulfonimidoyl)-6-methoxypicolinamide]",0.023,
"COc1cc(OC)c(S(=O)(=O)NC(=O)c2ccc(Cn3cccn3)c(OC)n2)cc1F [Compound 244, 5-((1H-pyrazol-1-yl)methyl)-N-((5-fluoro-2,4-dimethoxyphenyl)sulfonyl)-6-methoxypicolinamide]",0.014,
"COc1cccc(OCC2CC2)c1S(=O)(=O)NC(=O)c1ccc(Cn2cccn2)c(OC)n1 [Compound 245, 5-((1H-pyrazol-1-yl)methyl)-N-((2-(cyclopropylmethoxy)-6-methoxyphenyl)sulfonyl)-6-methoxypicolinamide]",0.012,
"COc1cc(OC)c(S(=O)(=O)NC(=O)c2ccc(Cn3cccn3)c(OC)n2)c2c1CCO2 [Compound 253, 5-((1H-pyrazol-1-yl)methyl)-N-((4,6-dimethoxy-2,3-dihydrobenzofuran-7-yl)sulfonyl)-6-methoxypicolinamide]",0.009,
"COc1cccc(OC2CCC2)c1S(=N)(=O)NC(=O)c1ccc(Cn2cccn2)c(OC)n1 (centres unmarked) [Compound 261, 5-((1H-pyrazol-1-yl)methyl)-N-(2-cyclobutoxy-6-methoxyphenylsulfonimidoyl)-6-methoxypicolinamide]",0.038,
"COc1ccc(S(=N)(=O)NC(=O)c2ccc(Cn3cccn3)c(OC)n2)c(OC)c1 (centres unmarked) [Compound 262, 5-((1H-pyrazol-1-yl)methyl)-N-(2,4-dimethoxyphenylsulfonimidoyl)-6-methoxypicolinamide]",0.115,
"COc1cc(OC)c(S(=N)(=O)NC(=O)c2ccc(Cn3cccn3)c(OC)n2)c(OC)c1 (centres unmarked) [Compound 263, 5-((1H-pyrazol-1-yl)methyl)-6-methoxy-N-(2,4,6-trimethoxyphenylsulfonimidoyl)picolinamide]",0.036,
"CCc1nc(C(=O)NS(=O)(=O)c2c(OC)cccc2OC)ccc1Cn1cccn1 [Compound 265, 5-((1H-Pyrazol-1-yl)methyl)-N-((2,6-dimethoxyphenyl)sulfonyl)-6-ethylpicolinamide]",0.014,
"COc1ccc(C(C)(C)CO)cc1S(=O)(=O)NC(=O)c1ccc(Cn2cccn2)c(OC)n1 [Compound 266, 5-((1H-Pyrazol-1-yl)methyl)-N-((5-(1-hydroxy-2-methylpropan-2-yl)-2-methoxyphenyl)sulfonyl)-6-methoxypicolinamide]",0.01,
"COc1ccc(C(C)(C)C)cc1S(=O)(=O)NC(=O)c1ccc(Cn2cccn2)n(C)c1=O [Compound 267, 6-((1H-Pyrazol-1-yl)methyl)-N-((5-(tert-butyl)-2-methoxyphenyl)sulfonyl)-1-methyl-2-oxo-1,2-dihydropyridine-3-carboxamide]",,45
"CCc1c(OC)cc(OC)c(S(=O)(=O)NC(=O)c2ccc(Cn3cccn3)c(OC)n2)c1OC [Compound 268, 5-((1H-Pyrazol-1-yl)methyl)-N-((3-ethyl-2,4,6-trimethoxyphenyl)sulfonyl)-6-methoxypicolinamide]",0.016,

# — patent publication US20250136553A1, “ACYLSULFONAMIDE KAT6A INHIBITORS” (Olema Pharmaceuticals, Inc., priority 2023, published 2025)
